Source: paper PMC10178848, “Modulating fast skeletal muscle contraction protects skeletal muscle in animal models of Duchenne muscular dystrophy” (The Journal of Clinical Investigation, 2023)
Like-named read-outs stand apart in the source and are kept apart here.

Tested on: GRMD plasma proteins
Format: in vivo, dog
[1] = EDG-5506 treatment to GRMD baseline, Increased in GRMD

O=c1ccc(-c2cnc(OCC(F)(F)F)nc2)nn1Cc1cncc(F)c1 [EDG-5506]
Change from GRMD Baseline (fraction): Tyrosine-protein kinase Yes (YES1) [1]: -0.1382 fraction | Change from GRMD Baseline (fraction): Tyrosine-protein kinase ZAP-70 (ZAP70) [1]: -0.1508 fraction | Change from GRMD Baseline (fraction): Tyrosine-protein phosphatase non-receptor type 1 (PTPN1) [1]: -0.1492 fraction | Change from GRMD Baseline (fraction): Tyrosine-protein phosphatase non-receptor type 11 (PTPN11) [1]: -0.1298 fraction | Change from GRMD Baseline (fraction): UMP-CMP kinase (CMPK1) [1]: -0.0444 fraction | Change from GRMD Baseline (fraction): Ubiquitin carboxyl-terminal hydrolase 25 (USP25) [1]: -0.1723 fraction | Change from GRMD Baseline (fraction): Ubiquitin carboxyl-terminal hydrolase isozyme L1 (UCHL1) [1]: -0.1135 fraction | Change from GRMD Baseline (fraction): Ubiquitin-fold modifier 1 (UFM1) [1]: -0.238 fraction | Change from GRMD Baseline (fraction): Vascular cell adhesion protein 1 (VCAM1) [1]: -0.0642 fraction | Change from GRMD Baseline (fraction): Vitamin K-dependent protein C (PROC) [1]: -0.2124 fraction | Change from GRMD Baseline (fraction): Vitronectin (VTN) [1]: -0.1269 fraction | Change from GRMD Baseline (fraction): cAMP-dependent protein kinase catalytic subunit alpha (PRKACA) [1]: -0.4297 fraction | Change from GRMD Baseline (fraction): dCTP pyrophosphatase 1 (DCTPP1) [1]: -0.2045 fraction | Chitotriosidase-1 (CHIT1): Change from GRMD Baseline (fraction) [1]: -0.0569 fraction | Chorionic somatomammotropin hormone (CSH1 CSH2): Change from GRMD Baseline (fraction) [1]: -0.0697 fraction | Chromobox protein homolog 5 (CBX5): Change from GRMD Baseline (fraction) [1]: -0.0792 fraction | Coagulation Factor X (F10): Change from GRMD Baseline (fraction) [1]: 0.1015 fraction | Coagulation factor IX (F9): Change from GRMD Baseline (fraction) [1]: 0.0746 fraction | Complement component 1 Q subcomponent-binding protein, mitochondrial (C1QBP): Change from GRMD Baseline (fraction) [1]: -0.0848 fraction | Connective tissue growth factor (CTGF): Change from GRMD Baseline (fraction) [1]: -0.0649 fraction | Cyclin-dependent kinase 1:G2/mitotic-specific cyclin-B1 complex (CDC2 CCNB1): Change from GRMD Baseline (fraction) [1]: -0.037 fraction | Cyclin-dependent kinase 5:Cyclin-dependent kinase 5 activator 1 complex (CDK5 CDK5R1): Change from GRMD Baseline (fraction) [1]: -0.0717 fraction | Cytokine receptor-like factor 1:Cardiotrophin-like cytokine factor 1 Complex (CRLF1 CLCF1): Change from GRMD Baseline (fraction) [1]: 0.1068 fraction | Dual 3',5'-cyclic-AMP and -GMP phosphodiesterase 11A (PDE11A): Change from GRMD Baseline (fraction) [1]: 0.0578 fraction | Ectodysplasin-A, secreted form (EDA): Change from GRMD Baseline (fraction) [1]: -0.0132 fraction | Endothelial cell-selective adhesion molecule (ESAM): Change from GRMD Baseline (fraction) [1]: 0.0149 fraction | Endothelial monocyte-activating polypeptide 2 (AIMP1): Change from GRMD Baseline (fraction) [1]: -0.1718 fraction | Extracellular superoxide dismutase [Cu-Zn] (SOD3): Change from GRMD Baseline (fraction) [1]: -0.0256 fraction | Ficolin-2 (FCN2): Change from GRMD Baseline (fraction) [1]: -0.1165 fraction | Fms-related tyrosine kinase 3 ligand (FLT3LG): Change from GRMD Baseline (fraction) [1]: -0.0844 fraction | Galactoside 3(4)-L-fucosyltransferase (FUT3): Change from GRMD Baseline (fraction) [1]: 0.0031 fraction | Galectin-10 (CLC): Change from GRMD Baseline (fraction) [1]: 0.0351 fraction | Glial fibrillary acidic protein (GFAP): Change from GRMD Baseline (fraction) [1]: -0.0103 fraction | Glycylpeptide N-tetradecanoyltransferase 1 (NMT1): Change from GRMD Baseline (fraction) [1]: -0.1333 fraction | Group 10 secretory phospholipase A2 (PLA2G10): Change from GRMD Baseline (fraction) [1]: 0.0049 fraction | Growth hormone receptor (GHR): Change from GRMD Baseline (fraction) [1]: -0.0293 fraction | Growth-regulated alpha protein (CXCL1): Change from GRMD Baseline (fraction) [1]: -0.0678 fraction | Growth/differentiation factor 15 (GDF15): Change from GRMD Baseline (fraction) [1]: -0.0948 fraction | Hepatocyte growth factor (HGF): Change from GRMD Baseline (fraction) [1]: -0.0495 fraction | Hepcidin (HAMP): Change from GRMD Baseline (fraction) [1]: -0.0269 fraction | Immunoglobulin M (IGHM IGJ IGK@ IGL@): Change from GRMD Baseline (fraction) [1]: -0.1429 fraction | Importin subunit alpha-1 (KPNA2): Change from GRMD Baseline (fraction) [1]: -0.0896 fraction | Induced myeloid leukemia cell differentiation protein Mcl-1 (MCL1): Change from GRMD Baseline (fraction) [1]: -0.0522 fraction | Inorganic pyrophosphatase (PPA1): Change from GRMD Baseline (fraction) [1]: -0.2863 fraction | Insulin-like growth factor-binding protein 7 (IGFBP7): Change from GRMD Baseline (fraction) [1]: -0.0264 fraction | Integrin alpha-IIb: beta-3 complex (ITGA2B ITGB3): Change from GRMD Baseline (fraction) [1]: -0.0613 fraction | Interleukin-4 (IL4): Change from GRMD Baseline (fraction) [1]: -0.0475 fraction | Interleukin-6 receptor subunit beta (IL6ST): Change from GRMD Baseline (fraction) [1]: 0.0395 fraction | Interleukin-8 (CXCL8): Change from GRMD Baseline (fraction) [1]: -0.0542 fraction | Interleukin-10 receptor subunit beta (IL10RB): Change from GRMD Baseline (fraction) [1]: -0.0725 fraction | Interleukin-17 receptor C (IL17RC): Change from GRMD Baseline (fraction) [1]: -0.0346 fraction | Interleukin-18 receptor accessory protein (IL18RAP): Change from GRMD Baseline (fraction) [1]: -0.0372 fraction | Interleukin-27 (IL27 EBI3): Change from GRMD Baseline (fraction) [1]: -0.0259 fraction | Interleukin-36 beta (IL36B): Change from GRMD Baseline (fraction) [1]: -0.0479 fraction | Killer cell immunoglobulin-like receptor 3DS1 (KIR3DS1): Change from GRMD Baseline (fraction) [1]: 0.0065 fraction | Killer cell lectin-like receptor subfamily F member 1 (KLRF1): Change from GRMD Baseline (fraction) [1]: -0.0162 fraction | Lamin-B1 (LMNB1): Change from GRMD Baseline (fraction) [1]: 0.0054 fraction | Laminin (LAMA1 LAMB1 LAMC1): Change from GRMD Baseline (fraction) [1]: -0.1316 fraction | Low-density lipoprotein receptor-related protein 1B (LRP1B): Change from GRMD Baseline (fraction) [1]: -0.0892 fraction | Macrophage-stimulating protein receptor (MST1R): Change from GRMD Baseline (fraction) [1]: -0.0588 fraction | Matrilin-3 (MATN3): Change from GRMD Baseline (fraction) [1]: -0.1231 fraction | Matrilysin (MMP7): Change from GRMD Baseline (fraction) [1]: -0.0308 fraction | N-terminal pro-BNP (NPPB): Change from GRMD Baseline (fraction) [1]: -0.0602 fraction | NKG2D ligand 3 (ULBP3): Change from GRMD Baseline (fraction) [1]: -0.0822 fraction | Neural cell adhesion molecule L1-like protein (CHL1): Change from GRMD Baseline (fraction) [1]: -0.0329 fraction | Neurexophilin-1 (NXPH1): Change from GRMD Baseline (fraction) [1]: -0.0271 fraction | OX-2 membrane glycoprotein (CD200): Change from GRMD Baseline (fraction) [1]: -0.0611 fraction | Persephin (PSPN): Change from GRMD Baseline (fraction) [1]: -0.013 fraction | Phosphatidylinositol 4,5-bisphosphate 3-kinase catalytic subunit gamma isoform (PIK3CG): Change from GRMD Baseline (fraction) [1]: -0.1006 fraction | Pituitary adenylate cyclase-activating polypeptide 27 (ADCYAP1): Change from GRMD Baseline (fraction) [1]: 0.1436 fraction | Platelet factor 4 (PF4): Change from GRMD Baseline (fraction) [1]: -0.1659 fraction | Platelet glycoprotein VI (GP6): Change from GRMD Baseline (fraction) [1]: 0.0008 fraction | Prolactin (PRL): Change from GRMD Baseline (fraction) [1]: -0.0751 fraction | Prolactin receptor (PRLR): Change from GRMD Baseline (fraction) [1]: -0.064 fraction | Proteasome subunit alpha type-6 (PSMA6): Change from GRMD Baseline (fraction) [1]: -0.0773 fraction | Protein E7_HPV18 (Human-virus): Change from GRMD Baseline (fraction) [1]: -0.1102 fraction | Proto-oncogene tyrosine-protein kinase receptor Ret (RET): Change from GRMD Baseline (fraction) [1]: -0.0388 fraction | RNA-binding protein 39 (RBM39): Change from GRMD Baseline (fraction) [1]: -0.0705 fraction | Ras GTPase-activating protein 1 (RASA1): Change from GRMD Baseline (fraction) [1]: -0.1536 fraction | Ribosome maturation protein SBDS (SBDS): Change from GRMD Baseline (fraction) [1]: -0.2649 fraction | SPARC-related modular calcium-binding protein 1 (SMOC1): Change from GRMD Baseline (fraction) [1]: -0.0553 fraction | Secreted and transmembrane protein 1 (SECTM1): Change from GRMD Baseline (fraction) [1]: -0.0267 fraction | Serine/threonine-protein kinase PAK 3 (PAK3): Change from GRMD Baseline (fraction) [1]: -0.1036 fraction | Serine/threonine-protein kinase PAK 7 (PAK7): Change from GRMD Baseline (fraction) [1]: -0.037 fraction | Serine/threonine-protein kinase pim-1 (PIM1): Change from GRMD Baseline (fraction) [1]: -0.0646 fraction | Serum amyloid A-1 protein (SAA1): Change from GRMD Baseline (fraction) [1]: -0.1842 fraction | Sialic acid-binding Ig-like lectin 7 (SIGLEC7): Change from GRMD Baseline (fraction) [1]: -0.0326 fraction | Small ubiquitin-related modifier 3 (SUMO3): Change from GRMD Baseline (fraction) [1]: -0.2515 fraction | Stromelysin-1 (MMP3): Change from GRMD Baseline (fraction) [1]: 0.0153 fraction | Stromelysin-2 (MMP10): Change from GRMD Baseline (fraction) [1]: -0.0419 fraction | Synaptosomal-associated protein 25 (SNAP25): Change from GRMD Baseline (fraction) [1]: 0.0795 fraction | T-cell surface glycoprotein CD4 (CD4): Change from GRMD Baseline (fraction) [1]: -0.0326 fraction | T-lymphocyte activation antigen CD86 (CD86): Change from GRMD Baseline (fraction) [1]: -0.0169 fraction | TATA-box-binding protein (TBP): Change from GRMD Baseline (fraction) [1]: -0.0838 fraction | Thyroxine-binding globulin (SERPINA7): Change from GRMD Baseline (fraction) [1]: 0.0123 fraction | Transcription factor IIIB 90 kDa subunit (BRF1): Change from GRMD Baseline (fraction) [1]: -0.0779 fraction | Tumor necrosis factor ligand superfamily member 18 (TNFSF18): Change from GRMD Baseline (fraction) [1]: -0.0886 fraction | Tumor necrosis factor receptor superfamily member 13B (TNFRSF13B): Change from GRMD Baseline (fraction) [1]: -0.1006 fraction | Tumor necrosis factor receptor superfamily member 13C (TNFRSF13C): Change from GRMD Baseline (fraction) [1]: 0.0816 fraction | Tumor-associated calcium signal transducer 2 (TACSTD2): Change from GRMD Baseline (fraction) [1]: -0.0508 fraction | Ubiquitin-conjugating enzyme E2 G2 (UBE2G2): Change from GRMD Baseline (fraction) [1]: 0.0044 fraction | WNT1-inducible-signaling pathway protein 1 (WISP1): Change from GRMD Baseline (fraction) [1]: -0.2187 fraction | WNT1-inducible-signaling pathway protein 3 (WISP3): Change from GRMD Baseline (fraction) [1]: -0.0425 fraction | alpha-2-macroglobulin receptor-associated protein (LRPAP1): Change from GRMD Baseline (fraction) [1]: -0.1071 fraction | cGMP-dependent 3',5'-cyclic phosphodiesterase (PDE2A): Change from GRMD Baseline (fraction) [1]: -0.1496 fraction | Change from GRMD Baseline (fraction) (Endothelial cell-specific molecule 1 (ESM1), EDG-5506 treatment to GRMD baseline): -0.0233 fraction | Change from GRMD Baseline (fraction) (Endothelial cell-specific molecule 1 (ESM1), Post-Treatment to GRMD baseline): -0.0289 fraction | Change from GRMD Baseline (fraction) (Ephrin-B3 (EFNB3), EDG-5506 treatment to GRMD baseline): 0.1026 fraction | Change from GRMD Baseline (fraction) (Ephrin-B3 (EFNB3), Post-Treatment to GRMD baseline): -0.0272 fraction | Change from GRMD Baseline (fraction) (Eukaryotic translation initiation factor 4E-binding protein 2 (EIF4EBP2), EDG-5506 treatment to GRMD baseline): 0.16 fraction | Change from GRMD Baseline (fraction) (Eukaryotic translation initiation factor 4E-binding protein 2 (EIF4EBP2), Post-Treatment to GRMD baseline): 0.0377 fraction | common DMD plasma proteomic signature (GRMD plasma, Somascan): significantly reversed this common DMD signature | Change from GRMD Baseline (fraction) (Glutathione S-transferase A3 (GSTA3), EDG-5506 treatment to GRMD baseline): 0.0601 fraction | Change from GRMD Baseline (fraction) (Glutathione S-transferase A3 (GSTA3), Post-Treatment to GRMD baseline): 1.476 fraction | Change from GRMD Baseline (fraction) (Heparan-sulfate 6-O-sulfotransferase 1 (HS6ST1), EDG-5506 treatment to GRMD baseline): 0.0701 fraction | Change from GRMD Baseline (fraction) (Heparan-sulfate 6-O-sulfotransferase 1 (HS6ST1), Post-Treatment to GRMD baseline): -0.1313 fraction | Change from GRMD Baseline (fraction) (Histone H3.1 (HIST1H3A), EDG-5506 treatment to GRMD baseline): 0.1658 fraction | Change from GRMD Baseline (fraction) (Histone H3.1 (HIST1H3A), Post-Treatment to GRMD baseline): 0.0723 fraction | Change from GRMD Baseline (fraction) (Human Chorionic Gonadotropin (CGA CGB), EDG-5506 treatment to GRMD baseline): 0.1653 fraction
